# Measurements from patent US6989396B2, “Tropane alkaloid multidrug resistance inhibitors from Erythroxylum pervillei and use of the same” (The Board of Trustees of the University of Illinois, priority 2001, dated 2006).
# pIC50: −log10 of the molar value. Read-outs that look alike come from different tables or passages of the source.
# What was measured:
# CEM/VLB100 cells = experiment: MDR reversal in drug-resistant human leukemia CEM/VLB100 cells; format: cell-based; conditions: Homo sapiens; CEM/VLB100 cells; read-out: IC50 value of the cytotoxic drug in the absence of modulator
# Description: Cytotoxic potential. The cytotoxic potential of test substances with KB-3, KB-V1 and KB-8-5 cells was determined as described previously (24). Briefly, various concentrations of test compounds (dissolved in 10 μl of 10% DMSO) were transferred to 96-well plates, and 190 μl aliquots of cell suspensions (5×10^4 cells/ml) were added to each well. The plates then were incubated for 72 hours at 37° C. (100% humidity with a 5% CO2 atmosphere in air), and 100 μl of cold 20% aqueous trichloroacetic acid were added to the growth medium in each well to fix the cells. The cultures were incubated at 4° C. for 30 minutes, washed, air-dried, stained with sulforhodamine B solution, and washed with 1% acetic acid. […] In each case, a zero-day control was performed by adding an equivalent number of cells to several wells and incubating at 37° C. for 30 minutes, and processing as described above. Optical density values obtained with the zero-day control were subtracted, and cell survival, relative to control (solvent-treated) cultures, was calculated. The cytotoxic potential of the compounds with CEM and CEM/VLB100 cells was determined as described by Beck et al. (30). Cells were grown in 24-well plates at a density of 5–6×10^5 cells/ml. At 48 hours, the cell number was determined using a Coulter Counter, with a channelizer to distinguish cells from debris.
# [1] = test system: KB, oral epidermoid carcinoma; experiment: In vitro cytotoxicity, human tumor panel: KB; format: cell-based; conditions: for IC50: Homo sapiens, read-out: ED50 KB
# Description: (§1) Cytotoxicity assay. Compounds 1–9 were evaluated for cytotoxic activity against a panel of human cancer cell lines, including KB-V1 in the presence and absence of VLB, according to an established protocol (68).
# [2] = test system: LNCaP, hormone-dependent prostate cancer; experiment: In vitro cytotoxicity, human tumor panel: LNCaP; format: cell-based; conditions: for IC50: Homo sapiens, LNCaP, read-out: ED50 LNCaP
# Description: as §1
# Col2, colon cancer = experiment: In vitro cytotoxicity, human tumor panel: Col2; format: cell-based; conditions: for IC50: Homo sapiens, read-out: ED50 Col2
# Description: as §1
# Lu1, lung cancer = experiment: In vitro cytotoxicity, human tumor panel: Lu1; format: cell-based; conditions: for IC50: Homo sapiens, read-out: ED50 Lu1
# Description: as §1
# BC1, breast cancer = experiment: In vitro cytotoxicity, human tumor panel: BC1; format: cell-based; conditions: for IC50: Homo sapiens, read-out: ED50 BCI
# Description: as §1
# [3] = test system: SW626, human ovarian adenocarcinoma; experiment: In vitro cytotoxicity, human tumor panel: SW626; format: cell-based; conditions: for IC50: SW626, read-out: ED50 SW626
# Description: as §1
# KB-V1, drug resistant KB = experiment: In vitro cytotoxicity, human tumor panel: KB-V1 with or without vinblastine; format: cell-based; conditions: for IC50: Homo sapiens, KB-V1, read-out: ED50 KB-V1−; for ED50 KB-V1+: drug resistant KB assessed in presence of vinblastine (1 μg/mL)
# Description: as §1
# [4] = test system: SKVLB (ovarian adenocarcinoma, multidrug resistance); experiment: Multidrug resistance inhibition in SKVLB (pGp +ve); format: cell-based, human
# [5] = test system: SKOV3 (ovarian adenocarcinoma); experiment: Cytotoxicity in ovarian adenocarcinoma SKOV3 (pGp -ve); format: cell-based
# Description: as §1
# [6] = drug-resistant KB assessed in the absence of vinblastine
# [7] = Homo sapiens, no adriamycin added, read-out: IC50 BSKVLB (pGp + ve)
# [8] = Homo sapiens, SK-OV-3; read-out: IC50 SKOV3 (pGp − ve)
SMILES,IC50 [1] [µg/mL],IC50 [2] [µg/mL],melting point [°C],"IC50 (Col2, colon cancer) [µg/mL]","IC50 (Lu1, lung cancer) [µg/mL]","IC50 (BC1, breast cancer) [µg/mL]",IC50 [3] [µg/mL],"IC50 (KB-V1, drug resistant KB; [6]) [µg/mL]","ED50 KB-V1+ (KB-V1, drug resistant KB) [µg/mL]",further results
"COc1cccc2c1C(=O)c1c(O)c3c(c(O)c1C2=O)C[C@@](O)(C(C)=O)C[C@@H]3O[C@H]1C[C@H](N)[C@H](O)[C@H](C)O1 [daunorubicin, reference compound]",–,–,–,–,–,–,–,–,–,pIC50 (CEM/VLB100 cells): 6.00
"COc1cc(C=CC(=O)O[C@H]2C[C@@H]3C[C@H](OC(=O)Cc4cccc(O)c4)C[C@H]2N3C)cc(OC)c1OC [Compound 8, 3α-(3-hydroxyphenylacetoxy)-6β-(3,4,5-trimethoxycinnamoyloxy)-tropane]",14.7,> 20,53 to 57,13.4,> 20,> 20,8.4,> 20,1.9,–
"COc1cccc2c1C(=O)c1c(O)c3c(c(O)c1C2=O)C[C@@](O)(C(=O)CO)C[C@@H]3O[C@H]1C[C@H](N)[C@H](O)[C@H](C)O1 [adriamycin, reference compound]",–,–,–,–,–,–,–,–,–,"pIC50 [4, 7]: 5.66; pIC50 [5, 8]: 8.10"
"CN1[C@@H]2C[C@@H](OC(=O)Cc3ccccc3)C[C@H]1[C@H](O)[C@@H]2O [Compound 1, Tropane-3α,6β,7β-triol 3-phenylacetate]",> 20,> 20,120 to 122,> 20,> 20,> 20,> 20,> 20,>20,–
"COc1cc(C(=O)O[C@H]2C[C@H]3CC[C@@H](C2)N3C)cc(OC)c1OC [Compound 2, 1αH,5αH-Tropan-3α-yl 3,4,5-trimethoxy-benzoate]",–,–,–,–,–,–,–,–,>20,"ED50 KB [1]: >20 µg/mL; ED50 LNCaP [2]: >20 µg/mL; ED50 Col2 (Col2, colon cancer): >20 µg/mL; ED50 Lu1 (Lu1, lung cancer): >20 µg/mL; ED50 BCI (BC1, breast cancer): >20 µg/mL; ED50 SW626 [3]: >20 µg/mL; ED50 KB-V1− (KB-V1, drug resistant KB; [6]): >20 µg/mL"
"COc1cc(C=CC(=O)O[C@H]2[C@@H](O)[C@@H]3C[C@H](OC(=O)c4cc(OC)c(OC)c(OC)c4)C[C@H]2[N+]3(C)[O-])cc(OC)c1OC (stereo partly drawn) [Compound 4, 3α-(3,4,5-trimethoxybenzoyloxy)-6β-(3,4,5-trimethoxycinnamoyloxy)-7β-hydroxytropane N-oxide]",> 20,> 20,118 to 121,> 20,> 20,> 20,> 20,> 20,>20,"pIC50 ([4]; Homo sapiens, read-out: IC50 BSKVLB (pGp + ve)): < 5.00; pIC50 ([4]; read-out: IC50 SKVLB (pGp + ve), addition of adriamycin, Addition of 1 μm adriamycin): < 5.00; pIC50 ([5]; Homo sapiens, SK-OV-3, read-out: IC50 SKOV3 (pGp − ve)): < 5.00"
"COc1cc2c(cc1OC)CN(CCc1ccc(NC(=O)c3cccc4c(=O)c5cccc(OC)c5[nH]c34)cc1)CC2 [GB120918, N-{4-[2-(1,2,3,4-tetrahydro-6,7-dimethoxy-2-isoquinolinyl)-ethyl]-phenyl}-9,10-dihydro-5-methoxy-9-oxo-4-acridine carboxamide, reference compound]",–,–,–,–,–,–,–,–,–,"pIC50 ([4]; Homo sapiens, Addition of 1 μm adriamycin, read-out: IC50 SKVLB (pGp + ve), addition of adriamycin): 7.70; pIC50 [4, 7]: 4.85; pIC50 [5, 8]: 5.09"
